Measured values: patent publication US11873298B2, “Compounds and uses thereof” (JANSSEN PHARMACEUTICA NV, priority 2017, dated 2024)

Experiments:
Format in all cases: cell-based
Ole1 = molecular target: T1, Ole1 (Saccharomyces cerevisiae, UniProt P21147); assay: Growth inhibition of yeast strain expressing Ole1 as sole desaturase; details: yeast strain expressing Ole1 as sole desaturase
T1 construct: expressed in transfected cells; host or cells: S. cerevisiae ole1Δ strain (W303 pdr1Δ pdr3Δ background), plasmid pRS316 with TDH3 promoter and CYC1 terminator
T1 sequence (P21147 1-510): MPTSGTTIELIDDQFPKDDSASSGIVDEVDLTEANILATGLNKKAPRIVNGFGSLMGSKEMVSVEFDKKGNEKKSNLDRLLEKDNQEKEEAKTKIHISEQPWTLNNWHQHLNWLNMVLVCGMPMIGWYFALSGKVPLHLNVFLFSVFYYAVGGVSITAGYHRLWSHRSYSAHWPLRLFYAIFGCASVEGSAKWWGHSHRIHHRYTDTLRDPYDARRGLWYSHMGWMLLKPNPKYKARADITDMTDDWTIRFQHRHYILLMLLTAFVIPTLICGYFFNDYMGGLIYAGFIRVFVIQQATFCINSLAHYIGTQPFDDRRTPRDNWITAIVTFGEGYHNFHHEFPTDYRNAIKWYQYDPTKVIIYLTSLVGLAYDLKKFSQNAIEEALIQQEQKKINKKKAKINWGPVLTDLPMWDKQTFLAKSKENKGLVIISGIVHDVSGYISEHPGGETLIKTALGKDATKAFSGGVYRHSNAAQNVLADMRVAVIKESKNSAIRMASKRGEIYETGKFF
Experimental: Strain oleΔ (yeast ole1 deletion mutant) was constructed by deleting OLE1 with NAT-MX6 in BY4741, amplifying the deletion cassette from the genomic DNA of the resulting strain with primers flanking the ORF by 1000 bp upstream and downstream, transforming the resulting deletion cassette into W303 pdr1Δ pdr3Δ, and plating transformants on YPD media containing G418 (200 μg/mL) and nourseothricin ([…]) with 0.01% TWEEN®-20 and 0.5 mM oleic and palmitoleic acids.
The coding sequence of yeast OLE1 was also cloned into this plasmid). These clones were then transformed into the ole1Δ strain and plated on CSM-Ura media (CSM lacking uracil) with 2% glucose (w/v) and independent colonies were isolated and amplified.
All compound profiling experiments were performed using the same basic protocol. Different genetic backgrounds (e.g., gene deletions) or conditions (e.g., addition of oleic and palmitoleic acid) were replaced as indicated below.
Yeast were cultured using standard techniques in complete synthetic media (CSM) and yeast nitrogen base supplemented with 2% (w/v) carbon source (glucose, raffinose, or galactose) to regulate the expression of the toxic disease protein. An initial starter culture was inoculated in 3 mL CSM-Glucose media and incubated overnight in a 30° C. shaker incubator (225 rpm). Saturated morning cultures were then diluted 1:20 in fresh CSM-Raffinose media and grown for 6 h to an OD600 (optical density) of ˜0.4-0.8 at 30° C. with shaking.
Compound administration was performed in two separate steps. First, 15 μL of CSM-Galactose (induces expression of toxic protein) was dispensed into clear 384 well assay plates using a MULTIDROP™ Combi reagent dispenser. […] The cultures described above were then diluted to a 2× concentration (0.03 and 0.08 for alpha-synuclein and ApoE, final ODsoo of 0.015 and 0.04) in CSM-Galactose. For wild-type and Ole1/SCD1/SCD5 plasmid-containing strains, the 2× cell density was 0.02. […] For 96-well assays (FIGS. 1A and 1B), compound dilutions in DMSO were generated in 96 well plates and 1 μL was manually pipetted into 96 well clear bottom assay plates.
For experiments using a plasmid-borne copy of Ole1, SCD1, or SCD5 (FIGS. 3B, 6, and 7), media lacking uracil (SX-Ura, where X is glucose, raffinose, or galactose), was used for all steps of the compound profiling protocol to ensure its maintenance throughout the assay.
After yeast delivery, assay plates were incubated under humidified conditions at 30° C. for 24 to 40 h. ApoE4 rescue experiments were stopped at 24 h, aSyn experiments at 40 h, Ole1 at 24 h, and SCD1/SCD5 at 40 h. The growth of yeast was monitored by reading the ODsoo of each well using a microplate reader (Perkin Elmer EnVision™).

SCD5 = molecular target: T2, SCD5 (Homo sapiens, UniProt Q86SK9); assay: Growth inhibition of humanized yeast strain expressing SCD5 as sole desaturase; details: humanized yeast strain expressing SCD5
T2 construct: host or cells: S. cerevisiae ole1Δ strain (W303 pdr1Δ pdr3Δ background), plasmid pRS316 with TDH3 promoter and CYC1 terminator
T2 sequence (Q86SK9 1-330): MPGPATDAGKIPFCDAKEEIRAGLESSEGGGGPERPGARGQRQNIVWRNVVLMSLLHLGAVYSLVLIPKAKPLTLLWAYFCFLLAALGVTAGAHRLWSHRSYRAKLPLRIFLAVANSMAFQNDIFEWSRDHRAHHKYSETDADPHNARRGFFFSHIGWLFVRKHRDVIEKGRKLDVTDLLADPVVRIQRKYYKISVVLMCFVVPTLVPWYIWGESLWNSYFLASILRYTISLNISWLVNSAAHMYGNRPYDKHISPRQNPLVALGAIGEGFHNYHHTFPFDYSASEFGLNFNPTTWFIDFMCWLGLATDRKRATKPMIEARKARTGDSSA
Procedure, shortened: (§1)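 Plasmid-complemented ole1Δ yeast, drug-pump deleted (pdr1Δ pdr3Δ), depend solely on the introduced Ole1, SCD1 or SCD5 desaturase. Compounds are added from DMSO to cells in uracil-free galactose medium, 2× density 0.02, and OD600 is read after 24 h or 40 h respectively.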

SCD1 = molecular target: T3, SCD1 (Homo sapiens, UniProt O00767); assay: Growth inhibition of humanized yeast strain expressing SCD1 as sole desaturase; details: humanized yeast strain expressing SCD1
T3 construct: host or cells: S. cerevisiae ole1Δ strain (W303 pdr1Δ pdr3Δ background), plasmid pRS316 with TDH3 promoter and CYC1 terminator
T3 sequence (O00767 1-359): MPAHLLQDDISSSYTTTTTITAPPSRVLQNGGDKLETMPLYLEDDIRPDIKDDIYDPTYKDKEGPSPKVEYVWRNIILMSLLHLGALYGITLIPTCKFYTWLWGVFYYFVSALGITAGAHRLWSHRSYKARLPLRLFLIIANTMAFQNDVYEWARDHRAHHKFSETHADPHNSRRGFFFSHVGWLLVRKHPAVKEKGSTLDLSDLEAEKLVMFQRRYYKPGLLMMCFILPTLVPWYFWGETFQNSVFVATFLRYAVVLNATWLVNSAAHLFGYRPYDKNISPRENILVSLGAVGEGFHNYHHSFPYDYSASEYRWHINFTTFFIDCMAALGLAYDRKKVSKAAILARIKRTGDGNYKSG
Procedure, shortened: as §1

SMILES | IC50 (Ole1) | OLE1 % Max Inhibition (Ole1) | IC50 (SCD5) | SCD5 % Max Inhibition (SCD5) | IC50 (SCD1) | SCD1 % Max Inhibition (SCD1)
Cc1nn(C)c2cc(-c3noc(C4CCN(C(=O)[C@H]5CN(c6ccccc6)C(=O)O5)CC4)n3)ccc12 [Compound 173] | > 45 µM | 99.75% | 29.8 µM | 42.09% | > 45 µM | 78.07%
CC1(C)CC(=O)c2c(O)cc(OCC(=O)NCCc3nc(-c4ccccc4)no3)cc2O1 [Compound 487] | > 45 µM | 103.20% | 40.2 µM | 70.73% |  | 83.76%
Cc1nn(C)c2cc(-c3noc(C4CCN(C(=O)c5ccccc5C(F)(F)F)CC4)n3)ccc12 [Compound 283] | > 45 µM | 24.43% | > 45 µM | 9.83% | 34.6 µM | 34.91%
Cc1nn(C)c2cc(-c3noc(C4CCN(C(=O)C5CC(=O)N(c6ccccn6)C5)CC4)n3)ccc12 (stereo not drawn) [Compound 195] | > 45 µM | 3.86% | > 45 µM | 9.78% | > 45 µM | 75.08%
Cc1nn(C)c2cc(-c3noc(C4CCN(C(=O)CNC(=O)c5cccnc5)CC4)n3)ccc12 [Compound 197] | > 45 µM | 4.80% | > 45 µM | 61.44% | > 45 µM | 66.87%
Cc1nn(C)c2cc(-c3nsc(C4CCN(C(=O)OC(C)(C)C)CC4)n3)ccc12 [Compound 300] | > 45 µM | 79.7% | > 45 µM | 36.0% |  | 78.1%
Cc1c2ccc(-c3noc(C4CCN(C(=O)CNC(=O)c5ccccc5)CC4)n3)cc2nn1C(C)C [Compound 289] | > 45 µM | 45.87% | > 45 µM | 77.71% |  | 62.01%
O=C(CNC(=O)c1ccccc1)NCCc1nc(-c2ccccc2)no1 [Compound 485] | > 45 µM | 75.19% | 30 µM | 65.42% |  | 62.60%
Cc1nn(C)c2cc(-c3noc(C4CCN(C(=O)c5cc(F)ccc5C(F)(F)F)CC4)n3)ccc12 [Compound 292] | > 45 µM | 13.6% | > 45 µM | 10.2% |  | 9.5%
O=C([C@H]1CC(=O)N(c2ccccc2)C1)N1CCC(c2nc(N3CC4(COC4)C3)no2)CC1 [Compound 316] | ≥ 45 µM | 89.26% |  | 80% | ≥ 45 µM | 69.01%
Cc1nn(C)c2cc(-c3noc(C4CCN(C(=O)C5CC(=O)N(CC6CC6)C5)CC4)n3)ccc12 (stereo not drawn) [Compound 245] | > 45 µM | 95.26% | > 45 µM | 66.96% | > 45 µM | 77.70%
CCN1C(=O)COc2ccc(-c3nc(C(C)c4ccccc4)no3)cc21 (stereo not drawn) [Compound 160] | 36.2 µM | 71.55% | 24.3 µM | 28.51% | 40.7 µM | 63.44%
Cc1c2cc(-c3noc(C4CCN(C(=O)c5ccc(C(C)C)cc5)CC4)n3)ccc2nn1C [Compound 318] | > 45 µM | 89.1% | > 45 µM | 33.7% | > 45 µM | 77.6%
COc1ccc(N2CC(C(=O)N3CCC(c4nc(-c5ccc6c(C)nn(C)c6c5)no4)CC3)CC2=O)cc1 (stereo not drawn) [Compound 206] | > 45 µM | 5.25% | > 45 µM | 19.89% | > 45 µM | 93.66%
O=C(C1CC(=O)N(c2ccccc2)C1)N1CCC(c2nc(-c3ccc4c(c3)COC4)no2)CC1 (stereo not drawn) [Compound 220] | > 45 µM | 3.10% | > 45 µM | 13.65% | > 45 µM | 87.27%
CCOc1ccc(-c2noc(N3CCN(C(=O)CN4Cc5ccccc5C4=O)CC3)n2)cc1OC [Compound 225] | > 45 µM | 20.97% | > 45 µM | 88.95% | > 45 µM | 94.06%
